Among the data in ChEMBL document CHEMBL1201862, “PubChem BioAssay data set” (2004) are IC50 values, retold here.

Assay [1] addresses T1, High affinity choline transporter 1 (Homo sapiens, UniProt Q9GZV3).
T1 sequence (Q9GZV3 whole entry): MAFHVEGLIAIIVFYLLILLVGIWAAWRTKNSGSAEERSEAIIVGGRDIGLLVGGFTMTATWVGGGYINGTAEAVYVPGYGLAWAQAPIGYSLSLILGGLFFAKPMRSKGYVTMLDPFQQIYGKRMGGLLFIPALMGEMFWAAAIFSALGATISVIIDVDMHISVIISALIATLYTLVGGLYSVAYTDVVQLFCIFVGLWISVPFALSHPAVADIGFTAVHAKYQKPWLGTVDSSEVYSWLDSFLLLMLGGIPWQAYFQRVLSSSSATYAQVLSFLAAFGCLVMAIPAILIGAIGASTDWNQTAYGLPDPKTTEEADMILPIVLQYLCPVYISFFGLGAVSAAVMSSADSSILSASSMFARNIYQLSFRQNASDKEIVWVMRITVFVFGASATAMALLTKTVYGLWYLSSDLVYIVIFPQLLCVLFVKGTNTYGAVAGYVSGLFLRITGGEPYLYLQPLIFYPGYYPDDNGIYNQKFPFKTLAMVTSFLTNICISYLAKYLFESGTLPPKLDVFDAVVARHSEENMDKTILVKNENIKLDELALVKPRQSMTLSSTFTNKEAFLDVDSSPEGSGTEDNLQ
The assay can be described thus: human choline transporter blockers, potency – cell-based, 5-point CRC, membrane potential dye, dose response (AID 504840). Format: functional.

Assay [2] has as its target T1, High affinity choline transporter 1. The assay can be described thus: human choline transporter blockers, potency – cell-based, 10-point CRC, membrane potential dye, dose response (AID 588401).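 Further: membrane potential dye fluorescence of choline-evoked depolarization via CHT.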 Format: functional.

Each structure is given as a SMILES string. Activity calls are given as the source filed them. How the calls were made is not given here.

What is called IC50 is the point on the concentration scale where inhibition reaches its midpoint. Consider `CCc1cccc(C)c1NC(=O)c1ccc(CN2CCc3ccccc3C2)cc1`, for which the IC50 in assay [1] was 3.88 µM (active); in assay [2], 7.94 µM (active).
